In patent US10993999B2, “Materials and methods for producing improved lentiviral vector particles” (IMMUNE DESIGN CORP., priority 2012, dated 2021):
Where two headings read alike, the source gives them in different places.

Tested on: PBMC-derived human dendritic cells
Type: cell-based

Molecule: Cc1ccnc2c1NC(=O)c1cccnc1N2C1CC1 [Nevirapine]
- effect of reverse-transcriptase inhibitor on transduction (integration-competent VSV-G-pseudotyped particles, 20 ng p24): inhibited

Molecule: Cc1cn([C@H]2C[C@H](N=[N+]=[N-])[C@@H](CO)O2)c(=O)[nH]c1=O [AZT]
- effect of reverse-transcriptase inhibitor on transduction (integration-deficient VSV-G-pseudotyped particles, 200 ng p24): inhibited

B1: Vpx: SIVmac Vpx protein (SEQ ID NO: 44), SAMHD1 inhibitor packaged into the lentivirus particles (protein)
chain: MSDPRERIPPGNSGEETIGEAFEWLNRTVEEINREAVNHLPRELIFQVWQRSWEYWHDEQGMSQSYVKYRYLCLMQKALFMHCKKGCRCLGEGHGAGGWRPGPPPPPPPGLA
modifications: Simian immunodeficiency virus
- role of Vpx in transduction of human dendritic cells (integration-competent VSV-G-pseudotyped lentiviral vector particles): enhanced
- role of Vpx in transduction of human dendritic cells (integration-deficient VSV-G-pseudotyped lentiviral particles): required
